What follows are molecules tested on MCH receptors (assay: MCH receptor activity class (method not given)). Conditions: MCH receptor activity class 1-3 (percent of control at 10^-7 M or IC50).

SMILES	class
CN(C)c1nc(N[C@H]2CC[C@@H](CNC(=O)Nc3c(Cl)cc(Cl)cc3Cl)CC2)nc2c1CCCC2 [compound 2461]	1 (Class 1: The value of percent of control at 10^−7 M was less than 40% or the value of IC50 was less than 50 nM.)
CC(C)c1ccccc1NC(=O)NC[C@H]1CC[C@@H](Nc2nccc(N(C)C)n2)CC1 [compound 2426]	3 (Class 3 The value of percent of control at 10^−7 M was more than 60% or the value of IC50 was more than 200 nM.)
CN(C)c1cc(N[C@H]2CC[C@@H](NC(=S)Nc3ccc(Cl)cc3C(F)(F)F)CC2)nc2ccccc12 [compound 2294]	3 (Class 3 The value of percent of control at 10^−7 M was more than 60% or the value of IC50 was more than 200 nM.)

Same assay, conditions: MCH receptor; class by percent of control at 10^-7 M or IC50

SMILES	class
CN(C)c1cc(N[C@H]2CC[C@@H](NC(=O)c3ccc(F)c(F)c3)CC2)nc2ccccc12 [compound 33, N-(cis-4-{[4-(dimethylamino)quinolin-2-yl]amino}cyclohexyl)-3,4-difluorobenzamide]	1 (Class 1: The value of percent of control at 10^−7 M was less than 40% or the value of IC50 was less than 50 nM.)
CN(C)c1cc(N[C@H]2CC[C@@H](NC(=O)COc3cccc(Cl)c3)CC2)nc2ccccc12 [compound 133]	1 (Class 1: The value of percent of control at 10^−7 M was less than 40% or the value of IC50 was less than 50 nM.)
Cc1cc(C(=O)NC[C@H]2CC[C@@H](Nc3cc(N(C)C)c4ccccc4n3)CC2)c(C(F)(F)F)o1 [compound 197]	3 (Class 3 The value of percent of control at 10^−7 M was more than 60% or the value of IC50 was more than 200 nM.)
Cc1ccc(NC(=S)N[C@H]2CC[C@@H](Nc3nc4c(c(N(C)C)n3)CCCC4)CC2)cc1 [compound 1959]	3 (Class 3 The value of percent of control at 10^−7 M was more than 60% or the value of IC50 was more than 200 nM.)

Same assay, conditions: activity class per percent of control at 10^-7 M or IC50

SMILES	class
CCOc1cc(CNC[C@H]2CC[C@@H](Nc3cc(N(C)C)c4ccccc4n3)CC2)ccc1OC [compound 1134]	3 (Class 3 The value of percent of control at 10^−7 M was more than 60% or the value of IC50 was more than 200 nM.)
COc1ccc(CNC[C@H]2CC[C@@H](Nc3cc(N(C)C)c4ccccc4n3)CC2)c(OC)c1 [compound 1131]	3 (Class 3 The value of percent of control at 10^−7 M was more than 60% or the value of IC50 was more than 200 nM.)
CN(C)c1cc(N[C@H]2CC[C@@H](CNCc3c[nH]nc3-c3ccc(C(F)(F)F)cc3)CC2)nc2ccccc12 [compound 1135]	3 (Class 3 The value of percent of control at 10^−7 M was more than 60% or the value of IC50 was more than 200 nM.)

Same assay, conditions: class 1-3 by percent of control at 10^-7 M or IC50

SMILES	class
CN(C)c1nc(N[C@H]2CC[C@@H](NC(=O)c3cccc([N+](=O)[O-])c3)CC2)nc2c1CCCC2 [compound 480]	1 (Class 1: The value of percent of control at 10^−7 M was less than 40% or the value of IC50 was less than 50 nM.)
COc1cccc(CC(=O)N[C@H]2CC[C@@H](Nc3nc4c(c(N(C)C)n3)CCCC4)CC2)c1 [compound 503]	2 (Class 2: The value of percent of control at 10^−7 M was from 40% to 60% or the value of IC′50 was from 50 nM to 200 nM.)
CN(C)c1nc(N[C@H]2CC[C@@H](NC(=O)c3ccc(F)cc3)CC2)nc2c1CCCC2 [compound 473]	1 (Class 1: The value of percent of control at 10^−7 M was less than 40% or the value of IC50 was less than 50 nM.)
COc1ccc(CC(=O)N[C@H]2CC[C@@H](Nc3nc4c(c(N(C)C)n3)CCCC4)CC2)cc1 [compound 505]	2 (Class 2: The value of percent of control at 10^−7 M was from 40% to 60% or the value of IC′50 was from 50 nM to 200 nM.)

Same assay, conditions: class by percent of control at 10^-7 M or IC50

SMILES	class
Cc1ccc(C(=O)c2ccccc2C(=O)N[C@H]2CC[C@@H](Nc3nccc(N(C)C)n3)CC2)cc1 [compound 898]	3 (Class 3 The value of percent of control at 10^−7 M was more than 60% or the value of IC50 was more than 200 nM.)
Cc1onc(-c2ccccc2)c1NC(=S)N[C@H]1CC[C@@H](Nc2nc3c(c(N(C)C)n2)CCCC3)CC1 [compound 1789]	3 (Class 3 The value of percent of control at 10^−7 M was more than 60% or the value of IC50 was more than 200 nM.)
CN(C)c1nc(N[C@H]2CC[C@@H](NC(=O)Nc3ccc(F)c(Cl)c3)CC2)nc2c1CCCC2 [compound 1805]	3 (Class 3 The value of percent of control at 10^−7 M was more than 60% or the value of IC50 was more than 200 nM.)
CN(C)c1ccnc(N[C@H]2CC[C@@H](NC(=O)NCc3ccc(Cl)cc3Cl)CC2)n1 [compound 2230]	3 (Class 3 The value of percent of control at 10^−7 M was more than 60% or the value of IC50 was more than 200 nM.)
CN(C)c1nc(N[C@H]2CC[C@@H](NC(=S)Nc3ccc(Br)cc3)CC2)nc2c1CCCC2 [compound 1737]	3 (Class 3 The value of percent of control at 10^−7 M was more than 60% or the value of IC50 was more than 200 nM.)
CN(C)c1cc(N[C@H]2CC[C@@H](NC(=O)Nc3ccc(Oc4ccccc4)cc3)CC2)nc2ccccc12 [compound 2132]	3 (Class 3 The value of percent of control at 10^−7 M was more than 60% or the value of IC50 was more than 200 nM.)
CN(C)c1nc(N[C@H]2CC[C@@H](CNC(=O)c3c(F)cccc3C(F)(F)F)CC2)nc2c1CCCC2 [compound 665]	3 (Class 3 The value of percent of control at 10^−7 M was more than 60% or the value of IC50 was more than 200 nM.)
CN(C)c1ccnc(N[C@H]2CC[C@@H](NCc3c[nH]c4ccc(Br)cc34)CC2)n1 [compound 1213]	2 (Class 2: The value of percent of control at 10^−7 M was from 40% to 60% or the value of IC′50 was from 50 nM to 200 nM.)
COc1cc(Br)c(CNC[C@H]2CC[C@@H](Nc3cc(N(C)C)c4ccccc4n3)CC2)cc1OC [compound 1191]	3 (Class 3 The value of percent of control at 10^−7 M was more than 60% or the value of IC50 was more than 200 nM.)
COc1cc([N+](=O)[O-])ccc1NC(=O)N[C@H]1CC[C@@H](Nc2nc3c(c(N(C)C)n2)CCCC3)CC1 [compound 1861]	3 (Class 3 The value of percent of control at 10^−7 M was more than 60% or the value of IC50 was more than 200 nM.)
C=CCSc1ncccc1C(=O)N[C@H]1CC[C@@H](Nc2nccc(N(C)C)n2)CC1 [compound 923]	3 (Class 3 The value of percent of control at 10^−7 M was more than 60% or the value of IC50 was more than 200 nM.)
CC(CN[C@H]1CC[C@@H](Nc2nc3c(c(N(C)C)n2)CCCC3)CC1)c1ccccc1 (relative stereo) [compound 1352]	3 (Class 3 The value of percent of control at 10^−7 M was more than 60% or the value of IC50 was more than 200 nM.)
COc1ccc(CC(=O)N[C@H]2CC[C@@H](Nc3nccc(N(C)C)n3)CC2)cc1 [compound 287]	3 (Class 3 The value of percent of control at 10^−7 M was more than 60% or the value of IC50 was more than 200 nM.)
CN(C)c1nc(N[C@H]2CC[C@@H](NC(=O)c3ccc(-c4ccc(Cl)cc4)o3)CC2)nc2c1CCCC2 [compound 973]	1 (Class 1: The value of percent of control at 10^−7 M was less than 40% or the value of IC50 was less than 50 nM.)
CN(C)c1nc(N[C@H]2CC[C@@H](NC(=O)NC34CC5CC(CC(C5)C3)C4)CC2)nc2c1CCCC2 (relative stereo) [compound 1807]	3 (Class 3 The value of percent of control at 10^−7 M was more than 60% or the value of IC50 was more than 200 nM.)

Same assay, conditions: class by percent of control at 10^−7 M or IC50

SMILES	class
Cc1cc(C)cc(C(=O)N[C@H]2CC[C@@H](Nc3ncc(C)c(N(C)C)n3)CC2)c1 [compound 2934]	1 (Class 1: The value of percent of control at 10^−7 M was less than 40% or the value of IC50 was less than 50 nM.)
COc1cccc(N(C)CC(=O)N[C@H]2CC[C@@H](Nc3ncc(C)c(N(C)C)n3)CC2)c1 [compound 2947]	1 (Class 1: The value of percent of control at 10^−7 M was less than 40% or the value of IC50 was less than 50 nM.)
Cc1cc(N(C)C)nc(N[C@H]2CC[C@@H](CNC(=O)c3ccc(Br)c(C)c3)CC2)n1 [compound 2763]	1 (Class 1: The value of percent of control at 10^−7 M was less than 40% or the value of IC50 was less than 50 nM.)
CCOc1cc(OCC)cc(C(=O)N[C@H]2CC[C@@H](Nc3ncc(C)c(N(C)C)n3)CC2)c1 [compound 2929, N-(cis-4-{[4-(dimethylamino)-5-methylpyrimidin-2-yl]amino}cyclohexyl)-3,5-diethoxybenzamide]	1 (Class 1: The value of percent of control at 10^−7 M was less than 40% or the value of IC50 was less than 50 nM.)
Cc1cc(N(C)C)nc(NC[C@H]2CC[C@@H](NC(=O)c3ccc(C)c(F)c3)CC2)n1 [compound 2737]	3 (Class 3 The value of percent of control at 10^−7 M was more than 60% or the value of IC50 was more than 200 nM.)
CCOc1cccc(C(=O)N[C@H]2CC[C@@H](Nc3nc(C)c(C)c(N(C)C)n3)CC2)c1 [compound 2861]	1 (Class 1: The value of percent of control at 10^−7 M was less than 40% or the value of IC50 was less than 50 nM.)
Cc1cc(N(C)C)nc(N[C@H]2CC[C@@H](NC(=O)c3ccc(Cl)o3)CC2)n1 [compound 2980, 5-chloro-N-(cis-4-{[4-(dimethylamino)-6-methylpyrimidin-2-yl]amino}cyclohexyl)-2-furamide]	1 (Class 1: The value of percent of control at 10^−7 M was less than 40% or the value of IC50 was less than 50 nM.)
COc1ccccc1Oc1ncccc1C(=O)N[C@H]1CC[C@@H](Nc2ncc(C)c(N(C)C)n2)CC1 [compound 2890, N-(cis-4-{[4-(dimethylamino)-5-methylpyrimidin-2-yl]amino}cyclohexyl)-2-(2-methoxyphenoxy)nicotinamide]	1 (Class 1: The value of percent of control at 10^−7 M was less than 40% or the value of IC50 was less than 50 nM.)
COc1ccccc1C(=O)N[C@H]1CC[C@@H](Nc2nc(C)cc(N(C)C)n2)CC1 [compound 2955]	3 (Class 3 The value of percent of control at 10^−7 M was more than 60% or the value of IC50 was more than 200 nM.)
Cc1cnc(N[C@H]2CC[C@@H](NC(=O)c3cc(F)cc(C(F)(F)F)c3)CC2)nc1N(C)C [compound 2930, N-(cis-4-{[4-(dimethylamino)-5-methylpyrimidin-2-yl]amino}cyclohexyl)-3-fluoro-5-(trifluoromethyl)benzamide]	1 (Class 1: The value of percent of control at 10^−7 M was less than 40% or the value of IC50 was less than 50 nM.)

Reference: US20050197350A1, “Novel quinoline, tetrahydroquinazoline, and pyrimidine derivatives and methods of treatment related to the use thereof” (TAISHO PHARMACEUTICAL CO., LTD., priority 2003, published 2005)
